PMC11647683, “Structural Aspects of Mycobacterium tuberculosis DNA Gyrase Targeted by Novel Bacterial Topoisomerase Inhibitors” (ACS Medicinal Chemistry Letters, 2024)
Where two headings read alike, the source gives them in different places.

How the values were obtained:
[1] = molecular target: T1, M. tuberculosis DNA gyrase (Mycobacterium tuberculosis, UniProt P9WG47); experiment: biochemical; details: M. tuberculosis DNA gyrase supercoiling, 100 nM compound
T1 construct: purchased Inspiralis (Norwich, UK)

M. tuberculosis H37Rv [2] = experiment: microbe, parasite or virus in culture; assay type: cell-based; details: Mycobacterium tuberculosis; for IC50: read-out: Antituberculosis activity M. tuberculosis H37Rv IC50; for IC90: read-out: Antituberculosis activity M. tuberculosis H37Rv IC90
hERG = hERG (Homo sapiens, UniProt Q12809)
[3] = molecular target: T1, M. tuberculosis DNA gyrase; experiment: biochemical; assay type: biochemical
M. tuberculosis H37Rv [4] = details: calculated from the published MIC value ref 26; cited from earlier work
[5] = reference wild-type strain, 90% inhibition of bacteria growth, mean of two independent measurements ± SD
[6] = M. tuberculosis gyrase supercoiling IC50, Assay 1, Assay 1 (single determination)
[7] = M. tuberculosis gyrase supercoiling IC50, Assay 2, Assay 2 (single determination)
[8] = supercoiling assay, mean of two independent measurements ± SD, read-out: Enzyme inhibition M. tuberculosis DNA gyrase IC50
[9] = Assay 1 (single determination), read-out: M. tuberculosis gyrase supercoiling IC50, Assay 1
[10] = Assay 2 (single determination), read-out: M. tuberculosis gyrase supercoiling IC50, Assay 2

T1 sequence (P9WG45 whole entry): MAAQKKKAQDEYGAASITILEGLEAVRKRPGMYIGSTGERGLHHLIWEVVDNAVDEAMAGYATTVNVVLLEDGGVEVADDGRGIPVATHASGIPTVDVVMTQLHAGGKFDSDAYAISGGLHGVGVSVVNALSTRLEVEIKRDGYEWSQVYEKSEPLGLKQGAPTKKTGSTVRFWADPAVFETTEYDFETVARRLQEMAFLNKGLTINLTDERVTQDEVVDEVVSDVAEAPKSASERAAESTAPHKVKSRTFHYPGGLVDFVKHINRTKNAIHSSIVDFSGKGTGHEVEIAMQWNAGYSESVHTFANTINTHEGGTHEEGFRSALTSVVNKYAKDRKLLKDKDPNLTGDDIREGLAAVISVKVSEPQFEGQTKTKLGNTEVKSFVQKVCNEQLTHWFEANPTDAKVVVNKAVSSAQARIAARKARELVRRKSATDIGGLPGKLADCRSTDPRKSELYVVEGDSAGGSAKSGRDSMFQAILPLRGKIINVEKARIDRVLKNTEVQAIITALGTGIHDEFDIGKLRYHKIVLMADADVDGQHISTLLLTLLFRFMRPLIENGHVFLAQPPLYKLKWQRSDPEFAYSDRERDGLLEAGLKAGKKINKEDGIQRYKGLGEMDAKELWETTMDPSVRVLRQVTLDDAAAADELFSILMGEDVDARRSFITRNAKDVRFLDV
T1 sequence (P9WG47 whole entry): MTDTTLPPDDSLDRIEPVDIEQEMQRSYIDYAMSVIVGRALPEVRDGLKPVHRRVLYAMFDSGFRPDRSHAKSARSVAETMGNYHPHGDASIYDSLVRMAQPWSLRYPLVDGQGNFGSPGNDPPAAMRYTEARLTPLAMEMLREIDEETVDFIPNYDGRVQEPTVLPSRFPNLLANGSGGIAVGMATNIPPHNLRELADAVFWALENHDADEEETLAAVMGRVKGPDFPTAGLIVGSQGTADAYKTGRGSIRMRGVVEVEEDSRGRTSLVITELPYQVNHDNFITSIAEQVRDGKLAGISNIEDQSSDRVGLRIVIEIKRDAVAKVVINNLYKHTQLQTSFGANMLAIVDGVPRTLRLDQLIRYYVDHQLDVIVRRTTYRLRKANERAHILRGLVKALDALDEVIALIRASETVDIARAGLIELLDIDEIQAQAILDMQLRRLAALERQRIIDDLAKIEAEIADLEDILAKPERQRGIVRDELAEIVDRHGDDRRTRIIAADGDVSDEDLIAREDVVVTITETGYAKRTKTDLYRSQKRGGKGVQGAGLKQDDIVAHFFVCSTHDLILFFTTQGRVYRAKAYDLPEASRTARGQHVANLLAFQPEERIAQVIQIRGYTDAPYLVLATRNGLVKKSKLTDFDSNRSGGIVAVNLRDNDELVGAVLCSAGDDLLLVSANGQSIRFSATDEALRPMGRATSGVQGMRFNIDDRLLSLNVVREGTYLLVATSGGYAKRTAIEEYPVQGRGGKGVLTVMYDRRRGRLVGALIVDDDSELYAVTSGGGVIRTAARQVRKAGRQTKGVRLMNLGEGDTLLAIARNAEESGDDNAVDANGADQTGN
Sequence of hERG (Q12809 whole entry): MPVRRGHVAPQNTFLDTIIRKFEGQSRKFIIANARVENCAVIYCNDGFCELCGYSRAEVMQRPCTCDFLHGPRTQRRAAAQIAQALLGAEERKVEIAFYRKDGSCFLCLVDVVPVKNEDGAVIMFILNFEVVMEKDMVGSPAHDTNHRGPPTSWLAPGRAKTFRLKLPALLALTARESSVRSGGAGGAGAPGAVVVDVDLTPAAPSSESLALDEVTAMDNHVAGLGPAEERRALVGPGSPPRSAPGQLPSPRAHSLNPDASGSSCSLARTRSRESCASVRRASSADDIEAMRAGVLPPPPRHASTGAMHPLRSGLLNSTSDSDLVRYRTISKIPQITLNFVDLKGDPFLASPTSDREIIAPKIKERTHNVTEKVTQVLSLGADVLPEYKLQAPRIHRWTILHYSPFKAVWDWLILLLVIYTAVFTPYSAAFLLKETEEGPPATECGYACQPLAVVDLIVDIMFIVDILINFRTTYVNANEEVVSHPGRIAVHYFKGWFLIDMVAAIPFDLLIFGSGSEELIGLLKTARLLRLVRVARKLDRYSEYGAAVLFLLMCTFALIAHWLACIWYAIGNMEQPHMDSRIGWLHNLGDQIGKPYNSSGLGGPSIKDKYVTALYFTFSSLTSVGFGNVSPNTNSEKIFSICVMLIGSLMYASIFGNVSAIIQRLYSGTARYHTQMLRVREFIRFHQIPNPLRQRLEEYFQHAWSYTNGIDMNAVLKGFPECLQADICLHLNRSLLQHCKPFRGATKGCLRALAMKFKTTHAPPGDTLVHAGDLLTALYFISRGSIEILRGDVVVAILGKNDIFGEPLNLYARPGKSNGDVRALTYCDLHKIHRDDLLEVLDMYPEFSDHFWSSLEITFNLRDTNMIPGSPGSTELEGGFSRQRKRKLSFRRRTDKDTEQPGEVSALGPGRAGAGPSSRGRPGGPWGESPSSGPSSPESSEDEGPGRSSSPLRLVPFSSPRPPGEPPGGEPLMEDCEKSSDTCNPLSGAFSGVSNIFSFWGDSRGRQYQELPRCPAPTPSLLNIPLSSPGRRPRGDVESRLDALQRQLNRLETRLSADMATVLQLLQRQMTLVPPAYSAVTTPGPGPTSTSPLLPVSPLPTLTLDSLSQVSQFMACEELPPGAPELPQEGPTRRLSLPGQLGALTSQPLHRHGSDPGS

COc1ccc2nccc(CCN3CCC(NCc4ccc(Br)c(F)c4)CC3)c2n1 [Compound 1]
inhibition at 0.1 µM [1]: 84.1%
IC50 (M. tuberculosis H37Rv [2]): 180 ± 45 nM
IC90 (M. tuberculosis H37Rv [2]; [5]): 200 ± 50 nM
IC50 (hERG): 455 nM
IC50 [3, 6]: 397 nM
IC50 [3, 7]: 330 nM
IC50 [3, 8]: 363 ± 34 nM

COc1ccc2nccc(CCN3CCC(NCc4ccc(I)c(F)c4)CC3)c2n1 [Compound 2]
inhibition at 0.1 µM [1]: 80.4%
IC50 (M. tuberculosis H37Rv [2]): 200 ± 25 nM
IC90 (M. tuberculosis H37Rv [2]; [5]): 270 ± 45 nM
IC50 (hERG): 243 nM
IC50 [3, 6]: 155 nM
IC50 [3, 7]: 56 nM
IC50 [3, 8]: 105 ± 50 nM

COc1ccc2nccc(CCN3CCC(NCc4cc(F)c(Cl)c(F)c4)CC3)c2n1 [Compound 3]
inhibition at 0.1 µM [1]: 90.2%
IC50 (M. tuberculosis H37Rv [2]): 71 ± 3 nM
IC90 (M. tuberculosis H37Rv [2]; [5]): 92 ± 8 nM
IC50 (hERG): 436 nM
IC50 [3, 9]: 93 nM
IC50 [3, 10]: 91 nM
IC50 [3, 8]: 92 ± 1 nM

COc1ccc2nccc(CCN3CCC(NCc4cc(F)c(Br)c(F)c4)CC3)c2n1 [Compound 4]
inhibition at 0.1 µM [1]: 99.8%
IC90 (M. tuberculosis H37Rv [2]; [5]): 62 ± 4 nM
IC50 [3, 9]: 89 nM
IC50 [3, 10]: 69 nM
IC50 [3, 8]: 79 ± 10 nM

COc1ccc2nccc(C(O)CC3CCC(NCc4cc(F)c(Br)c(F)c4)CC3)c2n1 (stereo not shown) [Compound 5]
inhibition at 0.1 µM [1]: 95%
IC90 (M. tuberculosis H37Rv [2]; [5]): 280 ± 65 nM
IC50 [3, 9]: 97 nM
IC50 [3, 10]: 96 nM
IC50 ([3]; average of Assay 1 and Assay 2, read-out: M. tuberculosis gyrase supercoiling IC50, Average): 96 nM
IC50 [3, 8]: 96 nM

COc1ccc2nccc(CCN3CCC(NCc4ccc(OC(F)F)c(OC)c4)CC3)c2n1 [Compound 6]
inhibition at 0.1 µM [1]: 0%

COc1ccc2nccc(CCN3CCC(NCc4ccc(OC(F)F)c(O)c4)CC3)c2n1 [Compound 7]
inhibition at 0.1 µM [1]: 3.47%

COc1ccc2nccc(CCN3CCC(NCc4ccc(C(F)(F)F)nc4)CC3)c2n1 [Compound 8]
inhibition at 0.1 µM [1]: 27.4%

COc1ccc2nccc(CCN3CCC(NCc4cnn(C(C)C)c4)CC3)c2n1 [Compound 9]
inhibition at 0.1 µM [1]: 7.45%

C=CCn1cc(CNC2CCN(CCc3ccnc4ccc(OC)nc34)CC2)cn1 [Compound 10]
inhibition at 0.1 µM [1]: 5.13%

COc1ccc2nccc(CCN3CCC(NCc4ccc(N(C)C)cc4)CC3)c2n1 [Compound 11]
inhibition at 0.1 µM [1]: 0%

COc1ccc(CNC2CCN(CCc3ccnc4ccc(OC)nc34)CC2)cn1 [Compound 12]
inhibition at 0.1 µM [1]: 0%

COc1ccc2nccc(CCN3CCC(NCc4ccccc4)CC3)c2n1 [Compound 13]
inhibition at 0.1 µM [1]: 0%

COc1ccc2nccc(CCN3CCC(NCc4ccc(F)cc4)CC3)c2n1 [Compound 14]
inhibition at 0.1 µM [1]: 0%

COc1ccc2nccc(CCN3CCC(NCc4ccc(Cl)cc4)CC3)c2n1 [Compound 15]
inhibition at 0.1 µM [1]: 44.8%

COc1ccc2nccc(CCN3CCC(NCc4ccc(Br)cc4)CC3)c2n1 [Compound 16]
inhibition at 0.1 µM [1]: 64.1%

COc1ccc2nccc(CCN3CCC(NCc4ccc(I)cc4)CC3)c2n1 [Compound 17]
inhibition at 0.1 µM [1]: 63.7%

COc1ccc2nccc(CCN3CCC(NCc4ccc(Cl)c(F)c4)CC3)c2n1 [Compound 18]
inhibition at 0.1 µM [1]: 52.2%

COc1ccc2nccc(CCN3CCC(NCc4ccc(Br)c(F)c4F)CC3)c2n1 [Compound 19]
inhibition at 0.1 µM [1]: 29.9%

COc1ccc2nccc(CCN3CCC(NCc4cc(F)c(Br)cc4F)CC3)c2n1 [Compound 20]
inhibition at 0.1 µM [1]: 43.1%

COc1ccc2nccc(CCN3CCC(NCc4ccc(I)c(F)c4F)CC3)c2n1 [Compound 21]
inhibition at 0.1 µM [1]: 14.4%

COc1ccc2nccc(CCN3CCC(NCc4ccc(Cl)nc4)CC3)c2n1 [Compound 22]
inhibition at 0.1 µM [1]: 27.3%

COc1ccc2nccc(CCN3CCC(NCc4ccc(Cl)cn4)CC3)c2n1 [Compound 23]
inhibition at 0.1 µM [1]: 0%

COc1ccc2nccc(OCC3CCC(NCc4ccc(Cl)cc4)CC3)c2n1 (stereo not shown) [Compound 24]
inhibition at 0.1 µM [1]: 4.7 ± 4.7%

COc1ccc2nccc(OCC3CCC(NCc4ccc(Br)cc4)CC3)c2n1 (stereo not shown) [Compound 25]
inhibition at 0.1 µM [1]: 0%

COc1ccc2nccc(OCC3CCC(NCc4ccc(I)cc4)CC3)c2n1 (stereo not shown) [Compound 26]
inhibition at 0.1 µM [1]: 9.68%

COc1ccc2nccc(OCC3CCC(NCc4cc(F)c(Cl)c(F)c4)CC3)c2n1 (stereo not shown) [Compound 27]
inhibition at 0.1 µM [1]: 41.6%

COc1ccc2nccc(OCC3CCC(NCc4cc(F)c(Br)c(F)c4)CC3)c2n1 (stereo not shown) [Compound 28]
inhibition at 0.1 µM [1]: 23.8%

COc1ccc2nccc(OCC3CCC(NCc4ccc(I)c(F)c4)CC3)c2n1 (stereo not shown) [Compound 29]
inhibition at 0.1 µM [1]: 27.8%

COc1ccc2nccc(OCC3CCC(NCc4ccc(Cl)cc4)CO3)c2n1 (stereo not shown) [Compound 30]
inhibition at 0.1 µM [1]: 0%

COc1ccc2nccc(OCC3CCC(NCc4ccc(Br)cc4)CO3)c2n1 (stereo not shown) [Compound 31]
inhibition at 0.1 µM [1]: 0%

COc1ccc2nccc(OCC3CCC(NCc4ccc(I)cc4)CO3)c2n1 (stereo not shown) [Compound 32]
inhibition at 0.1 µM [1]: 0.6%

COc1ccc2nccc(OCC3CCC(NCc4cc(F)c(Br)c(F)c4)CO3)c2n1 (stereo not shown) [Compound 33]
inhibition at 0.1 µM [1]: 19.3%

COc1ccc2nccc(OCC3CCC(NCc4cc(F)c(Cl)c(F)c4)CO3)c2n1 (stereo not shown) [Compound 34]
inhibition at 0.1 µM [1]: 4.3%

COc1ccc2nccc(OCC3CCC(NCc4ccc(I)c(F)c4)CO3)c2n1 (stereo not shown) [Compound 35]
inhibition at 0.1 µM [1]: 20.3%

COc1ccc2nccc(C(O)CC3CCC(NCc4ccc(Br)cc4)CC3)c2n1 (stereo not shown) [Compound 36]
inhibition at 0.1 µM [1]: 24.9%

O=c1ccc2ncc(=O)n3c2n1C[C@H]3CN1CCC(NCc2cc3c(cn2)OCCC3)CC1 [Gepotidacin, reference compound]
IC50 (hERG): > 30000 nM
MIC (M. tuberculosis H37Rv [4]): g MIC = 0.86 μM value for Gepotidacin was calculated from the published MIC value.[26] “/” values were not found in the literature.

C[C@H]1COc2c(N3CCN(C)CC3)c(F)cc3c(=O)c(C(=O)O)cn1c23 [Levofloxacin, reference compound]
IC50 (M. tuberculosis H37Rv [2]): 590 nM
IC90 (M. tuberculosis H37Rv [2]): 980 nM
